Measurements: paper PMC10454409, “Hybrids of Sterically Hindered Phenols and Diaryl Ureas: Synthesis, Switch from Antioxidant Activity to ROS Generation and Induction of Apoptosis” (International Journal of Molecular Sciences, 2023)

Assays:
[1] = tested on: M-HeLa cells (human cervix epithelioid carcinoma); experiment: MTT cytotoxicity test, M-HeLa; type: cell-based; settings: Homo sapiens, M-HeLa; MTT test; 24 h incubation per text, 48 h per method
Excerpt: (§1) For the experiments, we used tumor cell cultures M-HeLa clone 11 (epithelioid carcinoma of the cervix, subline HeLa., clone M-HeLa), HuTu 80 (human duodenal adenocarcinoma) and MCF7 (human breast adenocarcinoma (pleural fluid)) from the collection of the Institute of Cytology, Russian Academy of Sciences (St. Petersburg); human liver cells (Chang liver) from the collection of the Research Institute of Virology at the Russian Academy of Medical Sciences (Moscow); and SH-SY5Y (neuroblastoma)from the Laboratory of Tumor Cell Genetics at the Scientific Research Institute of Carcinogenesis N.N. Blokhin National Medical Research Center of Oncology.
(§2) The cytotoxic effect on cells was determined using the colorimetric method of cell proliferation—the MTT test. NADP-H-dependent cellular oxidoreductase enzymes can, under certain conditions, reflect the number of viable cells. These enzymes are able to reduce the tetrazolium dye (MTT)-3-(4,5-dimethylthiazol-2-yl)-2,5-diphenyl-tetrazolium bromide to insoluble blue-violet formazan, which crystallizes inside the cell. The amount of formazan formed is proportional to the number of cells with active metabolism.
(§3) Cells were seeded on a 96-well Nunc plate at a concentration of 5 × 10^3 cells per well in a volume of 100 μL of medium and cultured in a CO2 incubator at 37 °C until a monolayer was formed. […] After 48 h, the nutrient medium was removed from the plates and 100 µL of the nutrient medium without serum with MTT at a concentration of 0.5 mg/mL was added and incubated for 4 h at 37 °C. Formazan crystals were […] 100 µL of DMSO in each well. Optical density was recorded at 540 nm on an in vitro logic microplate reader (Russia). The experiments for all compounds were repeated in triplicate.
(§4) IC50 values were estimated using the Quest Graph IC50 Calculator (AAT Bioquest, Inc., Sunnyvale, CA, USA) (Version 2022) (accessed on 25 June 2022).

[2] = tested on: MCF-7 cells (human breast adenocarcinoma); experiment: MTT cytotoxicity test, MCF-7; type: cell-based; settings: Homo sapiens, MCF7, MTT test; 24 h incubation per text, 48 h per method
Description: as §2
Formazan crystals were added to 100 µL of DMSO in each well. Optical density was recorded at 540 nm on an in vitro logic microplate reader (Russia). The experiments for all compounds were repeated in triplicate.

[3] = tested on: HuTu 80 cells (human duodenal adenocarcinoma); experiment: MTT cytotoxicity test, HuTu 80; type: cell-based; settings: Homo sapiens, HuTu80, read-out: IC50, HuTu 80
Excerpt: as §1, §2, §3, §4

[4] = tested on: SH-SY5Y cells (neuroblastoma); experiment: MTT cytotoxicity test, SH-SY5Y; type: cell-based; settings: Homo sapiens, SH-SY5Y; MTT test; 24 h incubation per text, 48 h per method
Excerpt: as §1, §2, §3, §4

Cyclic voltammetry = type: physicochemical; settings: in CH3CN vs. Ag/AgCl; GC electrode; 0.1 V/s
Excerpt: Electrochemical measurements were taken on a BASi Epsilon EClipse electrochemical analyzer (West Lafayette, IN, USA). The program concentrated cEpsilon-ECUSB-V200 waves at the potential scan rate t = […] in a CH3CN 0.1 M solution of Bu4NBF4 at 295 K. A glassy carbon working electrode (ð = 3 mm) embedded in Teflon and a Pt wire as the counter electrode were used in the electrochemical cell. Before each measurement, the surface of the working electrode was mechanically polished. Ag/AgCl (0.01 M KCl) was used as a reference electrode. The reference electrode was connected with the cell solution by a modified Luggin capillary filled with the supporting electrolyte solution (0.1 M Bu4NBF4 in CH3CN). Thus, the reference electrode assembly had two compartments, each terminated with an ultra-fine glass frit to separate the AgCl from the analyte. The scan rate was 100 mV∙s^−1. The measurements were performed in a temperature-controlled electrochemical cell (volume from 5 mL to 20 mL) in an inert gas atmosphere (N2).
Figure 10 Cyclic voltammogram for the oxidation of SHPs. Conditions: 0.1 mM CH3CN (0.1 M Bu4NBF4); potentials vs. Ag/AgCl; work electrode: GC; scan rate: 0.1 V/s.

| Oxidation potential (Cyclic voltammetry) [V] | SMILES | IC50 [1] [µM] | IC50 [2] [µM] | IC50 [3] [µM] | IC50 [4] [µM] | melting point [°C] |
| --- | --- | --- | --- | --- | --- | --- |
| – | COP(=O)(OC)C(c1cc(C(C)(C)C)c(O)c(C(C)(C)C)c1)c1ccc(NC(=S)Nc2ccccc2)cc1NC(=S)Nc1ccccc1 (stereo not shown) [19a] | > 70 | > 70 | > 70 | > 70 | 207 to 208 |
| 1.60 | O=C(Nc1ccccc1)Nc1ccccc1 [diphenyl urea] | – | – | – | – | – |
| ~1.45 | Cc1cc(C(C)(C)C)c(O)c(C(C)(C)C)c1 [ionol] | – | – | – | – | – |
